The values that follow come from patent publication US20240293447A1, “Materials and Methods for Prevention and Treatment of Diarrhea and Inflammation in the Gastrointestinal Tract” (University of Florida Research Foundation, Inc., priority 2012, published 2024).

The assay concerns colitis in mice. Nature of the assay: Colitis in mice (dextran sulfate sodium (DSS)-induced colitis) after CaSR-activating nutrients. It is filed as in vivo. As to conditions: three-to-six-week-old mice received CaSR-activating nutrients (calcium, spermine, tryptophan, cinacalcet); figure legends only. Here is the method:
Briefly, three-to-six-week-old, pre-pubertal rats and mice (WT v. villin/cre-floxed CaSR) received antigens or CaSR-activating nutrients (calcium, spermine, tryptophan, and cinacalcet). After treatment, mice and rats were sacrificed, and epithelial barrier, cytokine expression, dendritic cell, T cell, and B cell activation, and response to inflammatory stress were determined (FIG. 2).

Molecules are shown by their SMILES.

Turning to `C[C@@H](NCCCc1cccc(C(F)(F)F)c1)c1cccc2ccccc12` [cinacalcet], the effect on colitis result is recorded as “can be used to treat colitis”.
